Data set [1] deals with rat. The note with it: Sub-acute repeat dose toxicity, Oral, Gavage/Intubation, dose end: 4 day, group: systemic.
The subject of data set [2] is rat. The note with it: Sub-acute repeat dose toxicity, Oral, Gavage/Intubation, dose end: 4 day, group: systemic. The source holds these as a separate data set.
In data set [3] the test system is rat. The note with it: Sub-acute repeat dose toxicity, Oral, Gavage/Intubation, dose end: 4 day, group: systemic. The source holds these as a separate data set.
The subject of data set [4] is rat. The note with it: Sub-acute repeat dose toxicity, Oral, Gavage/Intubation, dose end: 4 day, group: systemic. This is another data set of the same source.
Data set [5] relates to mouse. The note with it: Carcinogenicity, b6c3f1, Oral, Feed, dose end: 80 week, group: systemic.
The test system of data set [6] is rat. The note with it: Carcinogenicity, fischer, Oral, Feed, dose end: 78 week, group: systemic.
In data set [7] the test system is rat. The note with it: Subchronic oral toxicity in rodents, fischer, Feed, dose end: 26 week, group: systemic.
Data set [8] has as its system rat. The note with it: Sub-acute repeat dose toxicity, sprague dawley, Oral, Gavage/Intubation, dose end: 4 week, group: systemic.
For data set [9], the system named is dog. The note with it: Sub-acute repeat dose toxicity; beagle; Oral; Gavage/Intubation; dose end: 4 week; group: systemic; systemic / clinical chemistry / alanine aminotransferase (alt/sgpt) / alanine aminotransferase (alt/sgpt) + systemic / clinical chemistry / ….
The subject of data set [10] is rat. The note with it: Combined chronic toxicity/carcinogenicity, wistar, Oral, Feed, dose end: 104 week, group: systemic.
Data set [11] concerns rat. The note with it: Prenatal developmental toxicity study, wistar, Oral, Gavage/Intubation, dose end: 15 GD.
For another data set, the system named is rabbit. The note with it: Prenatal developmental toxicity study, chinchilla, Oral, Gavage/Intubation, dose end: 18 GD, group: maternal.
Data set [12] relates to dog. The note with it: Chronic toxicity; beagle; Oral; Feed; dose end: 52 week; group: systemic; systemic / in life observation / clinical signs / abnormal gait + systemic / in life observation / clinical signs / abnormal posture + ….
Data set [13] concerns rat. The note with it: Subchronic oral toxicity in rodents, wistar, Feed, dose end: 13 week.
In data set [14] the test system is mouse. The note with it: Carcinogenicity, cd1, Oral, Feed, dose end: 80 week, group: systemic.
The subject of data set [15] is rat. The note with it: Multigenerational reproductive toxicity study, wistar, Oral, Feed, dose end: 3 generation.
In data set [16] the test system is dog. The note with it: Subchronic oral toxicity in nonrodent, beagle, Feed, dose end: 13 week, group: systemic, systemic / in life observation / clinical signs / abnormal gait + systemic / in life observation / clinical signs / impaired reflex, nos + ….
For data set [17], the system named is dog. The note with it: Chronic toxicity, beagle, Oral, Feed, dose end: 26 week, group: systemic.
In data set [18] the test system is rat. The note with it: Combined chronic toxicity/carcinogenicity, fischer, Oral, Feed, dose end: 2 year, group: systemic.
The test system of data set [19] is dog. The note with it: Chronic toxicity, beagle, Oral, Feed, dose end: 52 week, group: systemic.
In data set [20] the test system is mouse. The note with it: Combined chronic toxicity/carcinogenicity, other, Oral, Feed, dose end: 23 month, group: systemic.
Setting [21] is: systemic / in life observation / clinical signs / abnormal respiratory sounds + systemic / in life observation / clinical signs / fur (….
Setting [22] is: systemic / pathology microscopic / liver / necrosis.
Setting [23] is: systemic / organ weight / liver / absolute.
The mark [24] stands for this setting: systemic / organ weight / liver / absolute + systemic / pathology microscopic / liver / necrosis.
[25] abbreviates: systemic / pathology microscopic / blood / lymphoma malignant + systemic / pathology microscopic / liver / hepatocellular carcinoma.
Setting [26] is: systemic / pathology microscopic / liver / hepatocellular carcinoma.
Setting [27] is: systemic / in life observation / body weight / body weight + systemic / in life observation / mortality / mortality + systemic / pathology ….
[28] abbreviates: systemic / pathology microscopic / liver / hepatocellular carcinoma + systemic / pathology microscopic / liver / neoplastic nodule + ….
The mark [29] stands for this setting: systemic / clinical chemistry / glucose / glucose + systemic / clinical chemistry / potassium / potassium + systemic / clinical chemistry / ….
Where [30] appears, read: systemic / hematology / hematocrit (hct) / hematocrit (hct) + systemic / hematology / leukocyte (wbc) count differential / leukocyte (wbc….
The mark [31] stands for this setting: systemic / clinical chemistry / alanine aminotransferase (alt/sgpt) / alanine aminotransferase (alt/sgpt) + systemic / clinical chemistry / ….
Setting [32] is: systemic / organ weight / liver / absolute + systemic / organ weight / liver / relative to body weight + systemic / organ weight / liver / ….
Where [33] appears, read: systemic / in life observation / body weight / body weight + systemic / clinical chemistry / [other] / [other] + systemic / organ weight / ….
[34] abbreviates: group: developmental, developmental / developmental malformation / bone / enlarged fontanel + developmental / developmental malformation / bone / incomplete ….
Setting [35] is: group: maternal, systemic / in life observation / body weight / body weight gain + systemic / in life observation / food consumption / food consumption + ….
Where [36] appears, read: systemic / in life observation / body weight / body weight gain + systemic / in life observation / food consumption / food consumption + ….
The mark [37] stands for this setting: group: cholinesterase, cholinesterase / cholinesterase / cholinesterase / cholinesterase (che).
Setting [38] is: group: systemic, systemic / clinical chemistry / chloride / chloride.
Where [39] appears, read: systemic / in life observation / body weight / body weight gain.
Where [40] appears, read: systemic / in life observation / body weight / body weight gain + systemic / pathology gross / ear / lesion(s) (nos) + systemic / pathology ….
The mark [41] stands for this setting: group: offspring, developmental / offspring survival late / viability index / viability index + systemic / in life observation / body weight / offspring (pup….
Where [42] appears, read: group: offspring, systemic / in life observation / body weight / offspring (pup) weight gain + developmental / offspring survival late / viability index / ….
Where [43] appears, read: group: parental, systemic / in life observation / body weight / body weight.
Where [44] appears, read: systemic / in life observation / clinical signs / defecation (diarrhea) + systemic / in life observation / clinical signs / stiffness + ….
[45] abbreviates: systemic / in life observation / body weight / body weight + systemic / in life observation / body weight / body weight gain + systemic / in….
Setting [46] is: systemic / in life observation / clinical signs / ataxia + systemic / in life observation / clinical signs / defecation (diarrhea) + ….
Setting [47] is: systemic / clinical chemistry / alkaline phosphatase (alp/alk) / alkaline phosphatase (alp/alk).
Where [48] appears, read: systemic / clinical chemistry / alkaline phosphatase (alp/alk) / alkaline phosphatase (alp/alk) + systemic / in life observation / body ….

The structures appear in SMILES notation.

As to `CNCc1ccc(S(C)(=O)=O)cc1Oc1ccc(Cl)c(C)c1C`, the LOAEL – broadly, the lowest dose or exposure tested at which an adverse effect was seen – in the data set on rat [1] (setting [21]) was over 500 mg/kg/day; in the data set with rat [2] (setting [23]), over 100 mg/kg/day; in the data set with rat [3] (setting [21]), over 500 mg/kg/day; with rat [4] (setting [21]), over 500 mg/kg/day. For the same compound, the NOAEL (as a rule, the highest tested level that showed no adverse finding) with rat [1] (setting [21]) was at least 500 mg/kg/day; in the data set with rat [2] (setting [23]), at least 100 mg/kg/day; with rat [3] (setting [21]) it was at least 500 mg/kg/day; with rat [4] (setting [21]), at least 500 mg/kg/day. In addition, the LEL in the data set with rat [1] (setting [22]), with rat [2] (setting [24]), in the data set with rat [3] (setting [22]) and in the data set with rat [4] (setting [22]) was 30 mg/kg/day throughout. Further, the NEL in the data set with rat [1] (setting [22]), with rat [2] (setting [24]), with rat [3] (setting [22]) and with rat [4] (setting [22]) was under 30 mg/kg/day each time.

With `Nc1ccc2c(c1)C(=O)c1ccccc1C2=O` [2-Aminoanthraquinone], the LOAEL in the data set with mouse [5] (setting [25]) was over 1500 mg/kg/day; in the data set on rat [6] (setting [28]), over 345 mg/kg/day; with rat [7] (setting [30]), over 1000 mg/kg/day. The NOAEL in the data set with mouse [5] (setting [25]) was at least 1500 mg/kg/day; in the data set on rat [6] (setting [28]), at least 345 mg/kg/day; in the data set on rat [7] (setting [30]), at least 1000 mg/kg/day. In addition, the LEL in the data set with mouse [5] (setting [26]) was 750 mg/kg/day; with rat [6] (setting [27]), 100 mg/kg/day; in the data set with rat [7] (setting [29]) it was 500 mg/kg/day. For the same compound, the NEL with mouse [5] (setting [26]) was under 750 mg/kg/day; in the data set on rat [6] (setting [27]), under 100 mg/kg/day; in the data set with rat [7] (setting [29]), under 500 mg/kg/day.

Turning to `O=C(NC(=O)c1cc(F)c(F)cc1Cl)Nc1cc(F)ccc1N1CCC(C(=O)O)CC1` [AVE2865], in the data set with rat [8] (setting [31]), the LOAEL stood at 35 mg/kg/day and the no-observed-adverse-effect level (NOAEL) stood at 5 mg/kg/day. Further, in the data set with rat [8] (setting [32]), the LEL was determined as 5 mg/kg/day and the NEL is under 5 mg/kg/day. In the data set on dog [9], the LEL turned out to be 1 mg/kg/day, the lowest observed adverse effect level (LOAEL) was over 10 mg/kg/day, the NEL is under 1 mg/kg/day and the no observed adverse effect level (NOAEL) is at least 10 mg/kg/day.

With `CC1(C)C(C=C(Cl)Cl)C1C(=O)OC(C#N)c1ccc(F)c(Oc2ccccc2)c1` (stereo unspecified) [Cyfluthrin], the LOAEL in the data set with rat [10] (systemic / in life observation / body weight / body weight) is 19.2 mg/kg/day; with rat [11] (setting [34]), 40 mg/kg/day; with rat [11] (group: maternal, systemic / in life observation / body weight / body weight gain + systemic / in life observation / food consumption / food consumption), 10 mg/kg/day; in the data set on rabbit (systemic / in life observation / body weight / body weight gain + systemic / in life observation / food consumption / food consumption) it was 60 mg/kg/day; in the data set on dog [12], 10.6 mg/kg/day; in the data set on rat [13] (setting [37]), over 38.9 mg/kg/day. The lowest-observed-adverse-effect level (LOAEL) in the data set with rat [13] (group: systemic, systemic / in life observation / body weight / body weight gain + systemic / in life observation / clinical signs / lack of coordination + …) turned out to be 38.9 mg/kg/day; in the data set with mouse [14] (setting [40]), 115 mg/kg/day; in the data set with rat [15] (setting [41]), 12.3 mg/kg/day; with rat [15] (group: parental, systemic / in life observation / body weight / body weight gain), 37.2 mg/kg/day; in the data set on dog [16], 13.9 mg/kg/day; with dog [17] (setting [44]), 15 mg/kg/day. For the same compound, the LOAEL in the data set on rat [18] (systemic / in life observation / body weight / body weight + systemic / in life observation / body weight / body weight gain) was 11.6 mg/kg/day; in the data set on dog [19] (systemic / in life observation / clinical signs / ataxia), 16 mg/kg/day; with mouse [20] (setting [48]), over 194 mg/kg/day. The LEL with rat [10] (systemic / in life observation / body weight / body weight + systemic / clinical chemistry / [other] / [other]) is 6.19 mg/kg/day; with rat [11] (setting [34]), 40 mg/kg/day; in the data set with rat [11] (setting [35]) it was 10 mg/kg/day; in the data set on rabbit (setting [36]) it was 60 mg/kg/day; in the data set with dog [12], 10.6 mg/kg/day; in the data set on rat [13] (setting [37]), 38.9 mg/kg/day. Further, the LEL in the data set with rat [13] (setting [38]) was found to be 2.3 mg/kg/day; with mouse [14] (setting [39]), 31.9 mg/kg/day; in the data set on rat [15] (setting [42]), 3.8 mg/kg/day; with rat [15] (setting [43]) it was 3.8 mg/kg/day; in the data set on dog [16], 13.9 mg/kg/day; in the data set with dog [17] (systemic / organ weight / thymus / absolute), 5 mg/kg/day. Besides, the figures for the LEL in the data set with rat [18] (systemic / in life observation / body weight / body weight + systemic / in life observation / body weight / body weight gain + systemic / …), with dog [19] (setting [46]) and with mouse [20] (setting [47]) were 11.6 mg/kg/day, 16 mg/kg/day and 11.6 mg/kg/day, respectively. Moreover, the NEL in the data set on rat [10] (setting [33]) was 2.02 mg/kg/day; in the data set with rat [11] (setting [34]), 10 mg/kg/day; in the data set with rat [11] (setting [35]), 3 mg/kg/day; in the data set with rabbit (setting [36]), 20 mg/kg/day; in the data set on dog [12], 2.43 mg/kg/day; in the data set on rat [13] (setting [37]), 9.5 mg/kg/day. Moreover, the NEL in the data set on rat [13] (setting [38]) is under 2.3 mg/kg/day; in the data set on mouse [14] (setting [39]), under 31.9 mg/kg/day; with rat [15] (setting [42]), under 3.8 mg/kg/day; with rat [15] (setting [43]), under 3.8 mg/kg/day; with dog [16], 2.36 mg/kg/day; in the data set on dog [17] (setting [44]), 1.62 mg/kg/day. For the same compound, the NEL with rat [18] (setting [45]) was 2.6 mg/kg/day; in the data set with dog [19] (setting [46]), 4 mg/kg/day; in the data set on mouse [20] (setting [47]) it was under 11.6 mg/kg/day. Further, the no observed adverse effect level (NOAEL) was 6.19 mg/kg/day with rat [10] (setting [33]); 10 mg/kg/day with rat [11] (setting [34]); 3 mg/kg/day with rat [11] (setting [35]); 20 mg/kg/day with rabbit (setting [36]); 2.43 mg/kg/day in the data set on dog [12]; at least 38.9 mg/kg/day in the data set with rat [13] (setting [37]). Besides, the NOAEL in the data set with rat [13] (group: systemic, systemic / clinical chemistry / chloride / chloride + systemic / in life observation / body weight / body weight gain + systemic / in life …) was determined as 9.5 mg/kg/day; in the data set on mouse [14] (setting [40]), 31.9 mg/kg/day; in the data set with rat [15] (setting [41]), 3.8 mg/kg/day; in the data set with rat [15] (group: parental, systemic / in life observation / body weight / body weight gain + systemic / in life observation / body weight / body weight) it was 12.3 mg/kg/day; in the data set with dog [16] it was 2.36 mg/kg/day; in the data set with dog [17] (setting [44]), 5 mg/kg/day. Besides, the no-observed-adverse-effect level (NOAEL) in the data set with rat [18] (setting [45]) is 2.6 mg/kg/day; with dog [19] (setting [46]), 4 mg/kg/day; in the data set on mouse [20] (setting [48]), at least 194 mg/kg/day.
